Our source for the solubility values is patent US20230143604A1, “QW DOSING OF GIP RECEPTOR AGONIST PEPTIDE COMPOUNDS AND USES THEREOF” (TAKEDA PHARMACEUTICAL COMPANY LIMITED, priority 2020, published 2023).

The data set is described as follows: physchem. Here is the method: Solubility of the GIPR peptides may be determined by dissolution in a phosphate buffer followed by quantitation using liquid chromatography, for example, High Performance Liquid Chromatogry (HPLC). An illustrative method is provided. For determination of the solubility of the GIPr agonist peptides, 3 mg of peptides are weighted out in a small glass vial. 100 μL of 200 mM Phosphate buffer pH 7.4 are added and the vial is sonicated/votexed as necessary for a maximum of 1 min. […] If insoluble material is observed in the tube the addition of 100 μL of buffer and mixing is repeated until complete dissolution.
3 mg of peptides are weighted out in a small glass vial. 100 uL of 200 mM Phosphate buffer pH 7.4 are added and the vial is sonicated/votexed as necessary for a maximum of 1 min. […] If insoluble material is observed in the tube the addition of 100 uL of buffer and mixing is repeated until complete dissolution.

Where [1] appears, read: pH 7.4, aqueous buffer, pH 7.4 Phosphate Buffer - Solubility, 200 mM Phosphate buffer pH 7.4.
The mark [2] stands for this setting: pH 7.4, solubility in phosphate buffer at pH 7.4, 200 mM phosphate buffer pH 7.4.

Starred links: 1 amine or outer side, 2 acyl side, 3 side chain; linkers in the order of their positions; H or OH if unused. Non-standard residues stand in square brackets, D forms with d. Residues, ends and D or L forms follow the SMILES beside them. Groups on a side chain read outwards from the residue. *: point of attachment. C18 diacid = O=C(O)CCCCCCCCCCCCCCCCC(=O)*; C17 diacid = O=C(O)CCCCCCCCCCCCCCCC(=O)*; γGlu = O=C(O)[C@H](CCC(=O)[*:2])N[*:1]; NMeY = CN[C@@H](Cc1ccc(O)cc1)C(=O)O; AEEA = NCCOCCOCC(=O)O; Aib = CC(C)(N)C(=O)O

Take `CC[C@H](C)[C@H](NC(=O)[C@H](CO)NC(=O)[C@H](Cc1ccc(O)cc1)NC(=O)[C@H](CC(=O)O)NC(=O)[C@H](CO)NC(=O)[C@@H](NC(=O)[C@H](Cc1ccccc1)NC(=O)[C@@H](NC(=O)CNC(=O)[C@H](CCC(=O)O)NC(=O)C(C)(C)NC(=O)[C@H](Cc1ccc(O)cc1)NC)[C@@H](C)O)[C@@H](C)CC)C(=O)N[C@@H](C)C(=O)N[C@@H](CC(C)C)C(=O)N[C@@H](CC(=O)O)C(=O)N[C@@H](CCCNC(=N)N)C(=O)NC(C)(C)C(=O)N[C@@H](C)C(=O)N[C@@H](CCC(N)=O)C(=O)NC(C)(C)C(=O)N[C@@H](CCCCNC(=O)COCCOCCNC(=O)COCCOCCNC(=O)CC[C@H](NC(=O)CC[C@H](NC(=O)CCCCCCCCCCCCCCCCC(=O)O)C(=O)O)C(=O)O)C(=O)N[C@@H](Cc1ccccc1)C(=O)N[C@H](C(=O)N[C@@H](CC(N)=O)C(=O)N[C@@H](Cc1c[nH]c2ccccc12)C(=O)N[C@@H](CC(C)C)C(=O)N[C@@H](CC(C)C)C(=O)N[C@@H](C)C(=O)N[C@@H](CCC(N)=O)C(=O)N[C@@H](CCCNC(=N)N)C(=O)NCC(=O)NCC(=O)NCC(=O)NCC(=O)N[C@@H](CO)C(N)=O)C(C)C` [Compound 21] (H-[NMeY][Aib]EGTFISDYSIALDR[Aib]AQ[Aib]K([AEEA-AEEA-γGlu-γGlu-C18 diacid])FVNWLLAQRGGGGS-NH2): the solubility runs as follows: (pH 7.4) ≥ 15 mg/mL; (pH 7.4, aqueous buffer) ≥ 30 mg/mL.
As to `CC[C@H](C)[C@H](NC(=O)[C@H](CO)NC(=O)[C@H](Cc1ccc(O)cc1)NC(=O)[C@H](CC(=O)O)NC(=O)[C@H](CO)NC(=O)[C@@H](NC(=O)[C@H](Cc1ccccc1)NC(=O)[C@@H](NC(=O)CNC(=O)[C@H](CCC(=O)O)NC(=O)C(C)(C)NC(=O)[C@H](Cc1ccc(O)cc1)NC)[C@@H](C)O)[C@@H](C)CC)C(=O)N[C@@H](C)C(=O)N[C@@H](CCCCNC(=O)CNC(=O)CNC(=O)CNC(=O)CNC(=O)CNC(=O)CC[C@H](NC(=O)CCCCCCCCCCCCCCCC(=O)O)C(=O)O)C(=O)N[C@@H](CC(=O)O)C(=O)N[C@@H](CCCNC(=N)N)C(=O)NC(C)(C)C(=O)N[C@@H](C)C(=O)N[C@@H](CCC(N)=O)C(=O)NC(C)(C)C(=O)N[C@@H](CC(=O)O)C(=O)N[C@@H](Cc1ccccc1)C(=O)N[C@H](C(=O)N[C@@H](CC(N)=O)C(=O)N[C@@H](Cc1c[nH]c2ccccc12)C(=O)N[C@@H](CC(C)C)C(=O)N[C@@H](CC(C)C)C(=O)N[C@@H](C)C(=O)N[C@@H](CCC(N)=O)C(=O)N[C@@H](CCCNC(=N)N)C(=O)N1CCC[C@H]1C(=O)N[C@@H](CO)C(=O)N[C@@H](CO)C(=O)NCC(=O)N[C@@H](C)C(=O)N1CCC[C@H]1C(=O)N1CCC[C@H]1C(=O)N1CCC[C@H]1C(=O)N[C@@H](CO)C(N)=O)C(C)C` [Compound 22], the solubility was ≥ 30 mg/mL under setting [1] and ≥ 15 mg/mL under setting [2].
As for `CC[C@H](C)[C@H](NC(=O)[C@H](CO)NC(=O)[C@H](Cc1ccc(O)cc1)NC(=O)[C@H](CC(=O)O)NC(=O)[C@H](CO)NC(=O)[C@@H](NC(=O)[C@H](Cc1ccccc1)NC(=O)[C@@H](NC(=O)CNC(=O)[C@H](CCC(=O)O)NC(=O)C(C)(C)NC(=O)[C@H](Cc1ccc(O)cc1)NC)[C@@H](C)O)[C@@H](C)CC)C(=O)N[C@@H](C)C(=O)N[C@@H](CC(C)C)C(=O)N[C@@H](CC(=O)O)C(=O)N[C@@H](CCCNC(=N)N)C(=O)N[C@@H](CCCCNC(=O)COCCOCCNC(=O)COCCOCCNC(=O)CC[C@H](NC(=O)CCCCCCCCCCCCCCCCC(=O)O)C(=O)O)C(=O)N[C@@H](C)C(=O)N[C@@H](CCC(N)=O)C(=O)NC(C)(C)C(=O)N[C@@H](CC(=O)O)C(=O)N[C@@H](Cc1ccccc1)C(=O)N[C@H](C(=O)N[C@@H](CC(N)=O)C(=O)N[C@@H](Cc1c[nH]c2ccccc12)C(=O)N[C@@H](CC(C)C)C(=O)N[C@@H](CC(C)C)C(=O)N[C@@H](C)C(=O)N[C@@H](CCC(N)=O)C(=O)N[C@@H](CCCNC(=N)N)C(=O)N1CCC[C@H]1C(=O)N[C@@H](CO)C(=O)N[C@@H](CO)C(=O)NCC(=O)N[C@@H](C)C(=O)N1CCC[C@H]1C(=O)N1CCC[C@H]1C(=O)N1CCC[C@H]1C(=O)N[C@@H](CO)C(N)=O)C(C)C` [Compound 23] (H-[NMeY][Aib]EGTFISDYSIALDRK([AEEA-AEEA-γGlu-C18 diacid])AQ[Aib]DFVNWLLAQRPSSGAPPPS-NH2), the solubility reads like this: under setting [1], ≥ 30 mg/mL; under setting [2], ≥ 15 mg/mL.
Take `CC[C@H](C)[C@H](NC(=O)[C@H](CO)NC(=O)[C@H](Cc1ccc(O)cc1)NC(=O)[C@H](CC(=O)O)NC(=O)[C@H](CO)NC(=O)[C@@H](NC(=O)[C@H](Cc1ccccc1)NC(=O)[C@@H](NC(=O)CNC(=O)[C@H](CCC(=O)O)NC(=O)C(C)(C)NC(=O)[C@H](Cc1ccc(O)cc1)NC)[C@@H](C)O)[C@@H](C)CC)C(=O)N[C@@H](C)C(=O)N[C@@H](CCCCNC(=O)CNC(=O)CNC(=O)CNC(=O)CNC(=O)CNC(=O)CC[C@H](NC(=O)CCCCCCCCCCCCCCCCC(=O)O)C(=O)O)C(=O)N[C@@H](CC(=O)O)C(=O)N[C@@H](CCCNC(=N)N)C(=O)NC(C)(C)C(=O)N[C@@H](C)C(=O)N[C@@H](CCC(N)=O)C(=O)NC(C)(C)C(=O)N[C@@H](CC(=O)O)C(=O)N[C@@H](Cc1ccccc1)C(=O)N[C@H](C(=O)N[C@@H](CC(N)=O)C(=O)N[C@@H](Cc1c[nH]c2ccccc12)C(=O)N[C@@H](CC(C)C)C(=O)N[C@@H](CC(C)C)C(=O)N[C@@H](C)C(=O)N[C@@H](CCC(N)=O)C(=O)N[C@@H](CCCNC(=N)N)C(=O)N1CCC[C@H]1C(=O)N[C@@H](CO)C(=O)N[C@@H](CO)C(=O)NCC(=O)N[C@@H](C)C(=O)N1CCC[C@H]1C(=O)N1CCC[C@H]1C(=O)N1CCC[C@H]1C(=O)N[C@@H](CO)C(N)=O)C(C)C` [Compound 24]: the solubility runs as follows: under setting [1], ≥ 30 mg/mL; under setting [2], ≥ 15 mg/mL.
In the same order, the values of `CC[C@H](C)[C@H](NC(=O)[C@H](CO)NC(=O)[C@H](Cc1ccc(O)cc1)NC(=O)[C@H](CC(=O)O)NC(=O)[C@H](CO)NC(=O)[C@@H](NC(=O)[C@H](Cc1ccccc1)NC(=O)[C@@H](NC(=O)CNC(=O)[C@H](CCC(=O)O)NC(=O)C(C)(C)NC(=O)[C@H](Cc1ccc(O)cc1)NC)[C@@H](C)O)[C@@H](C)CC)C(=O)N[C@@H](C)C(=O)N[C@@H](CC(C)C)C(=O)N[C@@H](CC(=O)O)C(=O)N[C@@H](CCCNC(=N)N)C(=O)NC(C)(C)C(=O)N[C@@H](CCCCNC(=O)COCCOCCNC(=O)COCCOCCNC(=O)CC[C@H](NC(=O)CCCCCCCCCCCCCCCC(=O)O)C(=O)O)C(=O)N[C@@H](CCC(N)=O)C(=O)NC(C)(C)C(=O)N[C@@H](CC(=O)O)C(=O)N[C@@H](Cc1ccccc1)C(=O)N[C@H](C(=O)N[C@@H](CC(N)=O)C(=O)N[C@@H](Cc1c[nH]c2ccccc12)C(=O)N[C@@H](CC(C)C)C(=O)N[C@@H](CC(C)C)C(=O)N[C@@H](C)C(=O)N[C@@H](CCC(N)=O)C(=O)N[C@@H](CCCNC(=N)N)C(=O)N1CCC[C@H]1C(=O)N[C@@H](CO)C(=O)N[C@@H](CO)C(=O)NCC(=O)N[C@@H](C)C(=O)N1CCC[C@H]1C(=O)N1CCC[C@H]1C(=O)N1CCC[C@H]1C(=O)N[C@@H](CO)C(N)=O)C(C)C` [Compound 25] (H-[NMeY][Aib]EGTFISDYSIALDR[Aib]K([AEEA-AEEA-γGlu-C17 diacid])Q[Aib]DFVNWLLAQRPSSGAPPPS-NH2) are ≥ 30 mg/mL and ≥ 15 mg/mL.
In the same order, the values of `CC[C@H](C)[C@H](NC(=O)[C@H](Cc1ccccc1)NC(=O)[C@@H](NC(=O)CNC(=O)[C@H](CCC(=O)O)NC(=O)C(C)(C)NC(=O)[C@H](Cc1ccc(O)cc1)NC)[C@@H](C)O)C(=O)N[C@@H](CO)C(=O)N[C@@H](CC(=O)O)C(=O)N[C@@H](Cc1ccc(O)cc1)C(=O)N[C@@H](CO)C(=O)N[C@H](C(=O)NC(C)(C)C(=O)N[C@@H](CC(C)C)C(=O)N[C@@H](CC(=O)O)C(=O)N[C@@H](CCCNC(=N)N)C(=O)N[C@@H](CCCCNC(=O)COCCOCCNC(=O)COCCOCCNC(=O)CC[C@H](NC(=O)CC[C@H](NC(=O)CCCCCCCCCCCCCCCCC(=O)O)C(=O)O)C(=O)O)C(=O)N[C@@H](C)C(=O)N[C@@H](CCC(N)=O)C(=O)NC(C)(C)C(=O)N[C@@H](CC(N)=O)C(=O)N[C@@H](Cc1ccccc1)C(=O)N[C@H](C(=O)N[C@@H](CC(N)=O)C(=O)N[C@@H](Cc1c[nH]c2ccccc12)C(=O)N[C@@H](CC(C)C)C(=O)N[C@@H](CC(C)C)C(=O)N[C@@H](C)C(=O)N[C@@H](CCC(N)=O)C(=O)N[C@@H](CCCNC(=N)N)C(=O)N1CCC[C@H]1C(=O)N[C@@H](CO)C(=O)N[C@@H](CO)C(=O)NCC(=O)N[C@@H](C)C(=O)N1CCC[C@H]1C(=O)N1CCC[C@H]1C(=O)N1CCC[C@H]1C(=O)N[C@@H](CO)C(N)=O)C(C)C)[C@@H](C)CC` [Compound 26] (H-[NMeY][Aib]EGTFISDYSI[Aib]LDRK([AEEA-AEEA-γGlu-γGlu-C18 diacid])AQ[Aib]NFVNWLLAQRPSSGAPPPS-NH2) are ≥ 30 mg/mL and ≥ 15 mg/mL.

In general, solubility refers to the dissolved amount per volume that the medium holds. A higher solubility goes with much dissolved substance.
